Key:
[1] = molecular target: T1, Cellular retinoic acid-binding protein 2 (Homo sapiens) (UniProt P29373); experiment: Inhibition of radioactive all-trans retinoic acid binding to CRABP2 (unknown origin) expressed in Escherichia coli BLR(DE3)pLys incubated for 1 hr by scintillation counting assay; conditions: concentration not given here
T1 sequence (whole entry): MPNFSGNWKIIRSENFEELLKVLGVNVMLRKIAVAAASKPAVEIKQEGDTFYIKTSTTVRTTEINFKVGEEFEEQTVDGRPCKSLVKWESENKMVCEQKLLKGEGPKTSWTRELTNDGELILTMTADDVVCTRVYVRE

Homo sapiens [2] = organism: Homo sapiens; experiment: Inhibition of transglutaminase in human keratinocytes assessed as mean transglutaminase activity level at 1.0 10^-3M in presence of 10 uM retinal relative to retinal alone; assay type: cell-based; parameters: scale not given: the % may be the effect or the level left
Homo sapiens [3] = organism: Homo sapiens; experiment: Inhibition of transglutaminase in human keratinocytes assessed as mean transglutaminase activity level at 1.1 10^-4M in presence of 10 uM retinal relative to retinal alone; assay type: cell-based; parameters: scale not given: the % may be the effect or the level left
Homo sapiens [4] = organism: Homo sapiens; experiment: Inhibition of transglutaminase in human keratinocytes assessed as mean transglutaminase activity level at 3.73 10^-4M in presence of 10 uM retinal relative to retinal alone; assay type: cell-based; parameters: scale not given: the % may be the effect or the level left
Homo sapiens [5] = organism: Homo sapiens; experiment: Inhibition of transglutaminase in human keratinocytes assessed as mean transglutaminase activity level at 1.23 10^-5M in presence of 10 uM retinal relative to retinal alone; assay type: cell-based; parameters: scale not given: the % may be the effect or the level left
Homo sapiens [6] = organism: Homo sapiens; experiment: Inhibition of transglutaminase in human keratinocytes assessed as mean transglutaminase activity level at 4.1 10^-5M in presence of 10 uM retinal relative to retinal alone; assay type: cell-based; parameters: scale not given: the % may be the effect or the level left
Homo sapiens [7] = organism: Homo sapiens; experiment: Inhibition of transglutaminase in human keratinocytes assessed as mean transglutaminase activity level at 1.65 10^-7M in presence of 10 uM retinal relative to retinal alone; assay type: cell-based; parameters: scale not given: the % may be the effect or the level left
Homo sapiens [8] = organism: Homo sapiens; experiment: Inhibition of transglutaminase in human keratinocytes assessed as mean transglutaminase activity level at 3.29 10^-7M in presence of 10 uM retinal relative to retinal alone; assay type: cell-based; parameters: scale not given: the % may be the effect or the level left
Homo sapiens [9] = organism: Homo sapiens; experiment: Inhibition of transglutaminase in human keratinocytes assessed as mean transglutaminase activity level at 5.0 10^-8M in presence of 10 uM retinal relative to retinal alone; assay type: cell-based; parameters: scale not given: the % may be the effect or the level left
Homo sapiens [10] = organism: Homo sapiens
Description: Inhibition of transglutaminase in human keratinocytes in presence of 10 uM retinal relative to retinal alone

Rattus norvegicus [11] = organism: Rattus norvegicus; experiment: Activation of retinol dehydrogenase in Sprague-Dawley rat liver microsomes assessed as increase in enzyme activity at 100 uM using all-trans retinol and NADP by HPLC analysis relative to control
Homo sapiens [12] = organism: Homo sapiens; experiment: Inhibition of transglutaminase in human keratinocytes assessed as mean transglutaminase activity level at 3 10^-5M in presence of 10 uM retinal relative to retinal alone; assay type: cell-based; parameters: scale not given: the % may be the effect or the level left
Homo sapiens [13] = organism: Homo sapiens; experiment: Inhibition of transglutaminase in human keratinocytes assessed as mean transglutaminase activity level at 1 10^-5M in presence of 10 uM retinal relative to retinal alone; assay type: cell-based; parameters: scale not given: the % may be the effect or the level left
Homo sapiens [14] = organism: Homo sapiens; experiment: Inhibition of transglutaminase in human keratinocytes assessed as mean transglutaminase activity level at 3.3 10^-6M in presence of 10 uM retinal relative to retinal alone; assay type: cell-based; parameters: scale not given: the % may be the effect or the level left
Homo sapiens [15] = organism: Homo sapiens; experiment: Inhibition of transglutaminase in human keratinocytes assessed as mean transglutaminase activity level at 1.1 10^-6M in presence of 10 uM retinal relative to retinal alone; assay type: cell-based; parameters: scale not given: the % may be the effect or the level left
Homo sapiens [16] = organism: Homo sapiens; experiment: Inhibition of transglutaminase in human keratinocytes assessed as mean transglutaminase activity level at 3.73 10^-7M in presence of 10 uM retinal relative to retinal alone; assay type: cell-based; parameters: scale not given: the % may be the effect or the level left
Homo sapiens [17] = organism: Homo sapiens; experiment: Inhibition of transglutaminase in human keratinocytes assessed as mean transglutaminase activity level at 1.23 10^-7M in presence of 10 uM retinal relative to retinal alone; assay type: cell-based; parameters: scale not given: the % may be the effect or the level left
Homo sapiens [18] = organism: Homo sapiens; experiment: Inhibition of transglutaminase in human keratinocytes assessed as mean transglutaminase activity level at 4.1 10^-8M in presence of 10 uM retinal relative to retinal alone; assay type: cell-based; parameters: scale not given: the % may be the effect or the level left
Homo sapiens [19] = organism: Homo sapiens; experiment: Inhibition of transglutaminase in human keratinocytes assessed as mean transglutaminase activity level at 8.2 10^-8M in presence of 10 uM retinal relative to retinal alone; assay type: cell-based; parameters: scale not given: the % may be the effect or the level left
Homo sapiens [20] = organism: Homo sapiens; experiment: Inhibition of transglutaminase in human keratinocytes assessed as mean transglutaminase activity level at 1.65 10^-9M in presence of 10 uM retinal relative to retinal alone; assay type: cell-based; parameters: scale not given: the % may be the effect or the level left
Homo sapiens [21] = organism: Homo sapiens; experiment: Inhibition of transglutaminase in human keratinocytes assessed as mean transglutaminase activity level at 8.2 10^-6M in presence of 10 uM retinal relative to retinal alone; assay type: cell-based; parameters: scale not given: the % may be the effect or the level left
Homo sapiens [22] = organism: Homo sapiens; experiment: Inhibition of transglutaminase in human keratinocytes assessed as mean transglutaminase activity level at 1.1 10^-8M in presence of 10 uM retinal relative to retinal alone; assay type: cell-based; parameters: scale not given: the % may be the effect or the level left
Rattus norvegicus [23] = organism: Rattus norvegicus; experiment: Inhibition of retinal reductase in Sprague-Dawley rat liver microsomes at 100 uM using all-trans retinaldehyde and NADPH by HPLC analysis relative to control
Homo sapiens [24] = organism: Homo sapiens; experiment: Inhibition of transglutaminase in human keratinocytes assessed as mean transglutaminase activity level at 3.29 10^-9M in presence of 10 uM retinal relative to retinal alone; assay type: cell-based; parameters: scale not given: the % may be the effect or the level left
Homo sapiens [25] = organism: Homo sapiens; experiment: Inhibition of transglutaminase in human keratinocytes in presence of retinal relative to retinal alone; assay type: cell-based; conditions: concentration not given here
Homo sapiens [26] = organism: Homo sapiens; experiment: Inhibition of transglutaminase in human keratinocytes assessed as mean transglutaminase activity level at 9.0 10^-3M in presence of 10 uM retinal relative to retinal alone; assay type: cell-based; parameters: scale not given: the % may be the effect or the level left
Homo sapiens [27] = organism: Homo sapiens; experiment: Inhibition of transglutaminase in human keratinocytes assessed as mean transglutaminase activity level at 3.0 10^-3M in presence of 10 uM retinal relative to retinal alone; assay type: cell-based; parameters: scale not given: the % may be the effect or the level left
[28] = molecular target: T2, Diacylglycerol O-acyltransferase 1 (Bos taurus) (UniProt Q8MK44); conditions: at 100 µM;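 further: ARAT activity in bovine RPE microsomes with retinol as substrate and dilauroyl phosphatidylcholine present, 5 min incubation, HPLC readout, inhibition expressed versus control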
T2 sequence (whole entry): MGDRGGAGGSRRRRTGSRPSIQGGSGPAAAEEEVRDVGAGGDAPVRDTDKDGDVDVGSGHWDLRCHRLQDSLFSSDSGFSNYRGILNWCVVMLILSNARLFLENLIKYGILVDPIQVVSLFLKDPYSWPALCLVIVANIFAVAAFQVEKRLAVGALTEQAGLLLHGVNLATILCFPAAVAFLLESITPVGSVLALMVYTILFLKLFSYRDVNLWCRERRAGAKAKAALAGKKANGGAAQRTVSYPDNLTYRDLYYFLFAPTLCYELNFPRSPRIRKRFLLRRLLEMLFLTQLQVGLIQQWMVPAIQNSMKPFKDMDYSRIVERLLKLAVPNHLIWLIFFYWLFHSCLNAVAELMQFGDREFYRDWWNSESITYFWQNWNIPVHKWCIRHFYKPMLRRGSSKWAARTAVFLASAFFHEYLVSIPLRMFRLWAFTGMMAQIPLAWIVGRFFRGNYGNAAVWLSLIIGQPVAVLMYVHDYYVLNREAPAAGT
Description: Inhibition of ARAT in bovine RPE microsomes at 100 uM using retinol substrate in presence of dilauroyl-phosphatidyl choline incubated for 5 mins by HPLC analysis relative to control

[29] = molecular target: T3, Lecithin retinol acyltransferase (Bos taurus) (UniProt Q9BGL2); conditions: at 100 µM;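 further: bovine retinal pigment epithelium microsomes given retinol plus palmitoyl-CoA, 5 min reaction, ester formation read by HPLC, inhibition expressed versus untreated control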
T3 sequence (whole entry): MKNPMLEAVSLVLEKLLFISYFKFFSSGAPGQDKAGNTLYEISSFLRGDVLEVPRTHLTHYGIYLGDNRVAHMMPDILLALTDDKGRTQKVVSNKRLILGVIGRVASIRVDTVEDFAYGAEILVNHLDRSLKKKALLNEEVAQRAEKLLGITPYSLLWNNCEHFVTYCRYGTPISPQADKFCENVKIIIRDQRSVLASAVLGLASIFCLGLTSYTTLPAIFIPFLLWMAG
Description: Inhibition of LRAT in bovine RPE microsomes at 100 uM using retinol substrate in presence of Palmitoyl-CoA incubated for 5 mins by HPLC analysis relative to control

Q: Which results are given for `CCCCCCCC/C=C/CCCCCCCC(=O)O`?
A: inhibition [1]: > 50%; Activity (Homo sapiens [2]): 12.8%; Activity (Homo sapiens [3]): 8%; Activity (Homo sapiens [4]): 13.8%; Activity (Homo sapiens [5]): 80.9%; Activity (Homo sapiens [6]): 58.2%; Activity (Homo sapiens [7]): 58%; Activity (Homo sapiens [8]): 69%; Activity (Homo sapiens [9]): 50.5%; IC20 (Homo sapiens [10]): 5.88 ×10⁻⁵ M

Q: How did the Activity (Rattus norvegicus [11]) turn out when `CCCCCCCC/C=C\CCCCCCCCCCCCCC(=O)N[C@@H](COP(=O)([O-])OCC[N+](C)(C)C)[C@H](O)/C=C/CCCCCCCCCCCCC` was run?
A: 26%

Q: What about the Activity (Homo sapiens [12]) of the same compound?
A: 45%

Q: What about the Activity (Homo sapiens [13]) of the same compound?
A: 77.8%

Q: What about the Activity (Homo sapiens [14]) of the same compound?
A: 76.4%

Q: And the Activity (Homo sapiens [15])?
A: 98.8%

Q: And the Activity (Homo sapiens [16])?
A: 91.6%

Q: What about the Activity (Homo sapiens [17]) of the same compound?
A: 70%

Q: What about the Activity (Homo sapiens [18]) of the same compound?
A: 74.6%

Q: And the Activity (Homo sapiens [19])?
A: 115%

Q: And the Activity (Homo sapiens [20])?
A: 68.4%

Q: What does the source list for `CC(C)CCCCCCCCCCCCCCC(=O)O`?
A: inhibition [1]: > 50%; Activity (Homo sapiens [2]): -8.6%; Activity (Homo sapiens [3]): 1.2%; Activity (Homo sapiens [4]): -5.3%; Activity (Homo sapiens [5]): 80%; Activity (Homo sapiens [6]): 67%; Activity (Homo sapiens [21]): 103%; Activity (Homo sapiens [7]): 95%; Activity (Homo sapiens [8]): 123%; Activity (Homo sapiens [9]): 78%; Activity (Homo sapiens [22]): 78%; IC20 (Homo sapiens [10]): 6.23 ×10⁻⁵ M

Q: Which inhibition (Rattus norvegicus [23]) does the source give for `COc1cc(NS(C)(=O)=O)ccc1Nc1c2ccccc2nc2ccccc12` here?
A: 22%

Q: And the Activity (Homo sapiens [12])?
A: -10%

Q: And the Activity (Homo sapiens [13])?
A: 1.8%

Q: What about the Activity (Homo sapiens [14]) of the same compound?
A: 64%

Q: What about the Activity (Homo sapiens [15]) of the same compound?
A: 84%

Q: What about the Activity (Homo sapiens [16]) of the same compound?
A: 109%

Q: What about the Activity (Homo sapiens [17]) of the same compound?
A: 65%

Q: And the Activity (Homo sapiens [18])?
A: 110%

Q: And the Activity (Homo sapiens [19])?
A: 131%

Q: And the Activity (Homo sapiens [20])?
A: 113%

Q: And the Activity (Homo sapiens [24])?
A: 92%

Q: What about the IC20 (Homo sapiens [10]) of the same compound?
A: 3.3 ×10⁻⁶ M

Q: Which inhibition (Homo sapiens [25]) does the source give for `O=C(NCNC(=O)NC1C(=O)NC(=O)N1CO)NC1C(=O)NC(=O)N1CO` (stereo not given) here?
A: 35%

Q: For `CC/C=C\C/C=C\C/C=C\CCCCCCCC(=O)O`, which inhibition (Rattus norvegicus [23]) is on record?
A: 54%

Q: What about the Activity (Homo sapiens [26]) of the same compound?
A: -11%

Q: What about the Activity (Homo sapiens [27]) of the same compound?
A: -5.7%

Q: And the Activity (Homo sapiens [2])?
A: -7.5%

Q: And the Activity (Homo sapiens [3])?
A: -23%

Q: And the Activity (Homo sapiens [4])?
A: 68%

Q: What about the Activity (Homo sapiens [5]) of the same compound?
A: 94.9%

Q: What about the Activity (Homo sapiens [6]) of the same compound?
A: 65.9%

Q: What about the Activity (Homo sapiens [21]) of the same compound?
A: 119%

Q: And the Activity (Homo sapiens [7])?
A: 77%

Q: What about the Activity (Homo sapiens [8]) of the same compound?
A: 98%

Q: What about the IC20 (Homo sapiens [10]) of the same compound?
A: 1.21 ×10⁻⁴ M

Q: Which inhibition (Homo sapiens [25]) does the source give for `CCCCCCCCCCCC(=O)NCCO` here?
A: 11%

Q: And the inhibition [28]?
A: 13%

Q: And the inhibition [29]?
A: 34%

From ChEMBL document CHEMBL4420071, “Method for treating skin with retinoids and retinoid boosters” (2013)
